These results are taken from US20250163104A1, “MACROCYCLIC IMMUNOMODULATORS” (priority 2021, published 2025).

Where a SMILES comes first, the peptide text is derived from it. Bridges are numbered along the chain shown (N, C = ends). [ ]: non-standard residue; d: D form. The star is where a group is joined. ξ: configuration not given here. Phe(4-COOH) = N[C@@H](Cc1ccc(C(=O)O)cc1)C(=O)O; Bip = N[C@@H](Cc1ccc(-c2ccccc2)cc1)C(=O)O; Phe(3-Me) = Cc1cccc(C[C@H](N)C(=O)O)c1; ξW = NC(Cc1c[nH]c2ccccc12)C(=O)O; 3Pal = N[C@@H](Cc1cccnc1)C(=O)O; 4Pal = N[C@@H](Cc1ccncc1)C(=O)O; Cit = NC(=O)NCCC[C@H](N)C(=O)O; Carboxymethyl = O=C(O)C*; Nle = CCCC[C@H](N)C(=O)O; Orn = NCCC[C@H](N)C(=O)O; Dab = NCC[C@H](N)C(=O)O; Dap = NC[C@H](N)C(=O)O

What is called IC50 is the concentration needed to halve the response being measured.

T1 sequence (Q15116 25-288): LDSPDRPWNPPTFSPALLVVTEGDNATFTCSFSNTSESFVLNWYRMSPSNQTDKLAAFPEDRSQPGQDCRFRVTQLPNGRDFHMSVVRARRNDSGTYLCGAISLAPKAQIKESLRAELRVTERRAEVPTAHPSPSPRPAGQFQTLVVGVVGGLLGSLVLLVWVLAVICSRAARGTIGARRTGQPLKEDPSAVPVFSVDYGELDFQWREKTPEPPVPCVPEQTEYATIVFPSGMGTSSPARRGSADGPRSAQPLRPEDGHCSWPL

The assay concerns the target T1, human PD-1 / PD-L1-Ig binding on Jurkat cell line over-expressing human PD-1 (Jurkat-PD-1) (Homo sapiens, UniProt Q15116).
T1 construct: expressed in transfected cells; host or cells: Jurkat
In words: Jurkat-PD-1 Cell Binding High-Content Screening Assay (CBA). To be noted: Jurkat-PD-1 cells, PE-labeled PD-L1-Ig 20 nM final; read-out: Jurkat HPD1_PDL1 IC50. It counts as cell-based. In outline:
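Read-out: high-content imaging of PE-tagged PD-L1-Ig bound to Jurkat cells overexpressing human PD-1, after fixation with 4% paraformaldehyde and Hoechst 33342 nuclear staining. Ligand was used at 20 nM final for 1 hour, after a 2 h compound exposure at 37° C in serum-containing DMEM.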
With `Cc1cccc(C[C@@H]2NC(=O)[C@H](CC(=O)O)NC(=O)[C@H](Cc3ccc(OCC(=O)O)cc3)NC(=O)[C@H](CN)NC(=O)CSC[C@@H](C(=O)N[C@@H](C)C(N)=O)NC(=O)[C@H]([C@@H](C)O)NC(=O)[C@H](C(C)C)NC(=O)[C@H](CC3CCCCC3)NC(=O)[C@H](CCN)NC(=O)[C@@H](CC(C)C)NC(=O)[C@H](CCCN)NC(=O)[C@H](CCCNC(N)=O)NC(=O)[C@H](Cc3ccc(-c4ccccc4)cc3)NC(=O)[C@H](C(C)C)NC2=O)c1` [Compound 1208], the half-maximal inhibitory concentration (IC50) came to 2.7 nM.

As for `CCCC[C@@H]1NC(=O)[C@H](CCN)NC(=O)[C@@H](CC(C)C)NC(=O)[C@H](CCCN)NC(=O)[C@H]([C@@H](C)CC)NC(=O)[C@H](Cc2ccc(-c3ccccc3)cc2)NC(=O)[C@H](C(C)C)NC(=O)[C@H](Cc2cccc(C)c2)NC(=O)[C@H](CC(=O)O)NC(=O)[C@H](Cc2ccc(OCC(=O)O)cc2)NC(=O)[C@H](CN)NC(=O)CSC[C@@H](C(=O)N[C@@H](C)C(N)=O)NC(=O)[C@H]([C@@H](C)O)NC(=O)[C@H](C(C)C)NC1=O` [Compound 1209], the IC50 came to 9.9 nM. Next, `CC[C@H](C)[C@@H]1NC(=O)[C@H](Cc2ccc(-c3ccccc3)cc2)NC(=O)[C@H](C(C)C)NC(=O)[C@H](Cc2cccc(C)c2)NC(=O)[C@H](CC(=O)O)NC(=O)[C@H](Cc2ccc(OCC(=O)O)cc2)NC(=O)[C@H](CN)NC(=O)CSC[C@@H](C(=O)N[C@@H](C)C(N)=O)NC(=O)[C@H]([C@@H](C)O)NC(=O)[C@H](C(C)C)NC(=O)[C@H](CC2CCCCC2)NC(=O)[C@H](CCN)NC(=O)[C@@H](CC(C)C)NC(=O)[C@H](CCCN)NC1=O` [Compound 1210]: 11.5 nM; `CCCC[C@@H]1NC(=O)[C@H](CCN)NC(=O)[C@@H](CC(C)C)NC(=O)[C@H](CCCN)NC(=O)[C@H](C(C)C)NC(=O)[C@H](Cc2ccc(-c3ccccc3)cc2)NC(=O)[C@H](C(C)C)NC(=O)[C@H](Cc2cccc(C)c2)NC(=O)[C@H](CC(=O)O)NC(=O)[C@H](Cc2ccc(OCC(=O)O)cc2)NC(=O)[C@H](CN)NC(=O)CSC[C@@H](C(=O)N[C@@H](C)C(N)=O)NC(=O)[C@H]([C@@H](C)O)NC(=O)[C@H](C(C)C)NC1=O` [Compound 1211] ({CH2CO}-[Dap]Y(Carboxymethyl)D[Phe(3-Me)]V[Bip]V[Orn][dL][Dab][Nle]VTCA-NH2; thioether N-14): 8.9 nM; `Cc1cccc(C[C@@H]2NC(=O)[C@H](CC(=O)O)NC(=O)[C@H](Cc3ccc(OCC(=O)O)cc3)NC(=O)[C@H](CN)NC(=O)CSC[C@@H](C(=O)N[C@@H](C)C(N)=O)NC(=O)[C@H]([C@@H](C)O)NC(=O)[C@H](C(C)C)NC(=O)[C@H](CC3CCCCC3)NC(=O)[C@H](CCN)NC(=O)[C@@H](CC(C)C)NC(=O)[C@H](CCCN)NC(=O)[C@H](C(C)C)NC(=O)[C@H](Cc3ccc(-c4ccccc4)cc3)NC(=O)[C@H](C(C)C)NC2=O)c1` [Compound 1212]: 6 nM. In the case of `CC(C)C[C@@H]1NC(=O)C(Cc2c[nH]c3ccccc23)NC(=O)[C@H](CC(=O)O)NC(=O)[C@H](Cc2ccc(O)cc2)NC(=O)[C@H](Cc2ccccc2)NC(=O)CSC[C@@H](C(=O)N[C@@H](C)C(N)=O)NC(=O)[C@H]([C@@H](C)O)NC(=O)[C@H](C(C)C)NC(=O)[C@H](CC(C)C)NC(=O)[C@H](CC(N)=O)NC(=O)[C@@H](CC(C)C)NC(=O)[C@H](CN)NC(=O)[C@H](C(C)C)NC(=O)[C@H](Cc2ccc(-c3ccccc3)cc2)NC1=O` (stereo partly drawn) [Compound 1213] ({CH2CO}-FYD[ξW]L[Bip]V[Dap][dL]NLVTCA-NH2; thioether N-14), the IC50 was determined as 20.8 nM. In the case of `CC(C)C[C@@H]1NC(=O)C(Cc2c[nH]c3ccccc23)NC(=O)[C@H](CC(=O)O)NC(=O)[C@H](Cc2ccc(O)cc2)NC(=O)[C@H](Cc2ccccc2)NC(=O)CSC[C@@H](C(=O)N[C@@H](C)C(N)=O)NC(=O)[C@H](CO)NC(=O)[C@H](C(C)C)NC(=O)[C@H](CC(C)C)NC(=O)[C@H](CC(N)=O)NC(=O)[C@@H](CC(C)C)NC(=O)[C@H](CCN)NC(=O)[C@H](C(C)C)NC(=O)[C@H](Cc2ccc(-c3ccccc3)cc2)NC1=O` (stereo partly drawn) [Compound 1214] ({CH2CO}-FYD[ξW]L[Bip]V[Dab][dL]NLVSCA-NH2; thioether N-14), the IC50 came to 14.1 nM.

For `CC(C)C[C@@H]1NC(=O)C(Cc2c[nH]c3ccccc23)NC(=O)[C@H](CC(=O)O)NC(=O)[C@H](Cc2ccc(O)cc2)NC(=O)[C@H](Cc2ccccc2)NC(=O)CSC[C@@H](C(=O)NCC(N)=O)NC(=O)[C@H]([C@@H](C)O)NC(=O)[C@H](C(C)C)NC(=O)[C@H](CC(C)C)NC(=O)[C@H](CC(N)=O)NC(=O)[C@@H](CC(C)C)NC(=O)[C@H](CCN)NC(=O)[C@H](C(C)C)NC(=O)[C@H](Cc2ccc(-c3ccccc3)cc2)NC1=O` (stereo partly drawn) [Compound 1215] ({CH2CO}-FYD[ξW]L[Bip]V[Dab][dL]NLVTCG-NH2; thioether N-14), the IC50 came out at 47 nM. In the case of `CC[C@H](C)[C@@H]1NC(=O)[C@H](Cc2ccc(-c3ccccc3)cc2)NC(=O)[C@H](CC(C)C)NC(=O)C(Cc2c[nH]c3ccccc23)NC(=O)[C@H](CC(=O)O)NC(=O)[C@H](Cc2ccc(O)cc2)NC(=O)[C@H](Cc2ccccc2)NC(=O)CSC[C@@H](C(=O)N[C@@H](C)C(N)=O)NC(=O)[C@H](CO)NC(=O)[C@H](C(C)C)NC(=O)[C@H](CC(C)C)NC(=O)[C@H](CC(N)=O)NC(=O)[C@@H](CC(C)C)NC(=O)[C@H](CN)NC1=O` (stereo partly drawn) [Compound 1216] ({CH2CO}-FYD[ξW]L[Bip]I[Dap][dL]NLVSCA-NH2; thioether N-14), the concentration for half-maximal inhibition (IC50) turned out to be 22.2 nM.

For the compound `CC(C)C[C@@H]1NC(=O)C(Cc2c[nH]c3ccccc23)NC(=O)[C@H](CC(=O)O)NC(=O)[C@H](Cc2ccc(O)cc2)NC(=O)[C@H](Cc2ccccc2)NC(=O)CSC[C@@H](C(=O)N[C@@H](C)C(N)=O)NC(=O)[C@H](CO)NC(=O)[C@H](C(C)C)NC(=O)[C@H](CC(C)C)NC(=O)[C@H](CC(N)=O)NC(=O)[C@@H](CC(C)C)NC(=O)[C@H](CN)NC(=O)[C@H](CCCNC(N)=O)NC(=O)[C@H](Cc2ccc(-c3ccccc3)cc2)NC1=O` (stereo partly drawn) [Compound 1217] ({CH2CO}-FYD[ξW]L[Bip][Cit][Dap][dL]NLVSCA-NH2; thioether N-14), the IC50 amounted to 25.4 nM. As to `Cc1cccc(C[C@@H]2NC(=O)[C@H](CC(=O)O)NC(=O)[C@H](Cc3ccc(OCC(=O)O)cc3)NC(=O)[C@H](Cc3cccnc3)NC(=O)CSC[C@@H](C(=O)N[C@@H](C)C(N)=O)NC(=O)[C@H]([C@@H](C)O)NC(=O)[C@H](C(C)C)NC(=O)[C@H](CC(C)C)NC(=O)[C@H](CCN)NC(=O)[C@@H](CC(C)C)NC(=O)[C@H](CCCN)NC(=O)[C@H](C(C)C)NC(=O)[C@H](Cc3ccc(-c4ccccc4)cc3)NC(=O)[C@H](C(C)C)NC2=O)c1` [Compound 1218] ({CH2CO}-[3Pal]Y(Carboxymethyl)D[Phe(3-Me)]V[Bip]V[Orn][dL][Dab]LVTCA-NH2; thioether N-14), the IC50 was 5.6 nM. In the case of `Cc1cccc(C[C@@H]2NC(=O)[C@H](CC(=O)O)NC(=O)[C@H](Cc3ccc(C(=O)O)cc3)NC(=O)[C@H](CN)NC(=O)CSC[C@@H](C(=O)N[C@@H](C)C(N)=O)NC(=O)[C@H]([C@@H](C)O)NC(=O)[C@H](C(C)C)NC(=O)[C@H](CC(C)C)NC(=O)[C@H](CCN)NC(=O)[C@@H](CC(C)C)NC(=O)[C@H](CCCN)NC(=O)[C@H](C(C)C)NC(=O)[C@H](Cc3ccc(-c4ccccc4)cc3)NC(=O)[C@H](C(C)C)NC2=O)c1` [Compound 1219] ({CH2CO}-[Dap][Phe(4-COOH)]D[Phe(3-Me)]V[Bip]V[Orn][dL][Dab]LVTCA-NH2; thioether N-14) it was 5.4 nM; in that of `Cc1cccc(C[C@@H]2NC(=O)[C@H](CC(=O)O)NC(=O)[C@H](Cc3ccc(OCC(=O)O)cc3)NC(=O)[C@H](Cc3ccc(OCC(=O)O)cc3)NC(=O)CSC[C@@H](C(=O)N[C@@H](C)C(N)=O)NC(=O)[C@H]([C@@H](C)O)NC(=O)[C@H](C(C)C)NC(=O)[C@H](CC(C)C)NC(=O)[C@H](CCN)NC(=O)[C@@H](CC(C)C)NC(=O)[C@H](CCCN)NC(=O)[C@H](C(C)C)NC(=O)[C@H](Cc3ccc(-c4ccccc4)cc3)NC(=O)[C@H](C(C)C)NC2=O)c1` [Compound 1220] ({CH2CO}-Y(Carboxymethyl)Y(Carboxymethyl)D[Phe(3-Me)]V[Bip]V[Orn][dL][Dab]LVTCA-NH2; thioether N-14), 5.1 nM. Consider `Cc1cccc(C[C@@H]2NC(=O)[C@H](CC(=O)O)NC(=O)[C@H](Cc3ccc(C(=O)O)cc3)NC(=O)[C@H](Cc3ccc(OCC(=O)O)cc3)NC(=O)CSC[C@@H](C(=O)N[C@@H](C)C(N)=O)NC(=O)[C@H]([C@@H](C)O)NC(=O)[C@H](C(C)C)NC(=O)[C@H](CC(C)C)NC(=O)[C@H](CCN)NC(=O)[C@@H](CC(C)C)NC(=O)[C@H](CCCN)NC(=O)[C@H](C(C)C)NC(=O)[C@H](Cc3ccc(-c4ccccc4)cc3)NC(=O)[C@H](C(C)C)NC2=O)c1` [Compound 1221] ({CH2CO}-Y(Carboxymethyl)[Phe(4-COOH)]D[Phe(3-Me)]V[Bip]V[Orn][dL][Dab]LVTCA-NH2; thioether N-14), for which the IC50 was 3 nM.

With `Cc1cccc(C[C@@H]2NC(=O)[C@H](CC(=O)O)NC(=O)[C@H](Cc3ccncc3)NC(=O)[C@H](Cc3ccc(OCC(=O)O)cc3)NC(=O)CSC[C@@H](C(=O)N[C@@H](C)C(N)=O)NC(=O)[C@H]([C@@H](C)O)NC(=O)[C@H](C(C)C)NC(=O)[C@H](CC(C)C)NC(=O)[C@H](CCN)NC(=O)[C@@H](CC(C)C)NC(=O)[C@H](CCCN)NC(=O)[C@H](C(C)C)NC(=O)[C@H](Cc3ccc(-c4ccccc4)cc3)NC(=O)[C@H](C(C)C)NC2=O)c1` [Compound 1222] ({CH2CO}-Y(Carboxymethyl)[4Pal]D[Phe(3-Me)]V[Bip]V[Orn][dL][Dab]LVTCA-NH2; thioether N-14), the half-inhibitory concentration (IC50) worked out at 14.7 nM.
